*1 amine or outer side, *2 acyl side, *3 side chain or, on linkers, in order; H or OH if unused. Where a SMILES comes first, the peptide text is derived from it. Bridges are numbered along the chain shown (N, C = ends). [ ]: non-standard residue; d: D form. The star is where a group is joined. Abu(4-yl) = O=C([C@H](CC[*:3])N[*:1])[*:2]; AEF = NCCOc1ccc(C[C@H](N)C(=O)O)cc1; hLeu = CC(C)CC[C@H](N)C(=O)O; αMeK = C[C@](N)(CCCCN)C(=O)O; Dap = NC[C@H](N)C(=O)O; OBn = c1ccc(CO*)cc1
Molecular target: T1, Interleukin-23 receptor (Homo sapiens, UniProt Q5VWK5)
T1 sequence (Q5VWK5 whole entry): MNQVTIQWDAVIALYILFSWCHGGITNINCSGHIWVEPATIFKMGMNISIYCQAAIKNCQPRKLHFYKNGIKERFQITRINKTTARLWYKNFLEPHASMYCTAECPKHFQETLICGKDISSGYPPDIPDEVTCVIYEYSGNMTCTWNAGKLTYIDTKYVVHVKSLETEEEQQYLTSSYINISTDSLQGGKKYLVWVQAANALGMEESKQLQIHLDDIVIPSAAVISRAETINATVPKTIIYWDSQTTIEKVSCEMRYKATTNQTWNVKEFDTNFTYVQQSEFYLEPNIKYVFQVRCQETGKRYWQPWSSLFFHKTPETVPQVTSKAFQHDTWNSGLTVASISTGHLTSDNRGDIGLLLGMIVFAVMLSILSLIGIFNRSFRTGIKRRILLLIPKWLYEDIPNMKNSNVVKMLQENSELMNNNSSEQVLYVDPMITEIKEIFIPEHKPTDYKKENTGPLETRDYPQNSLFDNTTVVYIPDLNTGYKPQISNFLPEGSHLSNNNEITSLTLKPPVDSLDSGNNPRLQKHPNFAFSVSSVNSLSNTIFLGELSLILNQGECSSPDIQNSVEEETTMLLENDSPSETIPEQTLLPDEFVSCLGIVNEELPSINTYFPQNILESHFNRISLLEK
Assay: Inhibition of interleukin-23 binding to human interleukin-23 receptor incubated for 2 hrs by competitive binding ELISA

Row | SMILES | IC50 [µM]
1 | CC(=O)N[C@@H](CS)C(=O)N[C@@H](CCC(N)=O)C(=O)N[C@H](C(=O)N[C@@H](CCC(=O)O)C(=O)N[C@@H](CCC(N)=O)C(=O)N[C@@H](CS)C(=O)N[C@@H](Cc1ccc(O)cc1)C(=O)N[C@@H](Cc1c[nH]c2ccccc12)C(=O)N[C@@H](CCC(C)C)C(=O)N[C@@H](CCC(=O)O)C(=O)N[C@@H](CC(N)=O)C(=O)NCC(N)=O)[C@@H](C)O (Ac-CQTEQCYW[hLeu]ENG-NH2) | > 10
2 | CC(C)[C@H](NC(=O)[C@H](Cc1c[nH]c2ccccc12)NC(=O)[C@H](CC(=O)O)NC(=O)[C@H](C)NC(=O)[C@@H](N)C(C)(C)S)C(=O)N[C@H](C(=O)N[C@@H](Cc1ccc(O)cc1)C(=O)N[C@@H](Cc1c[nH]c2ccccc12)C(=O)N[C@@H](Cc1cnc[nH]1)C(=O)N[C@H](C(=O)N[C@@H](Cc1ccccc1)C(=O)NCC(N)=O)[C@@H](C)O)C(C)(C)S | > 6
3 | CC(=O)N[C@@H](CS)C(=O)N[C@@H](CCCCN)C(=O)N[C@H](C(=O)N[C@@H](Cc1c[nH]c2ccccc12)C(=O)N[C@H](C(=O)N[C@@H](CS)C(=O)N[C@@H](Cc1ccc(O)cc1)C(=O)N[C@@H](Cc1c[nH]c2ccccc12)C(=O)N[C@@H](Cc1cnc[nH]1)C(=O)N[C@@H](CCC(=O)O)C(=O)N[C@@H](Cc1ccccc1)C(=O)NCC(N)=O)[C@@H](C)O)[C@@H](C)O (Ac-CKTWTCYWHEFG-NH2) | < 0.5
4 | CC(=O)N[C@@H](CS)C(=O)N[C@@H](C)C(=O)N[C@@H](CC(=O)O)C(=O)N[C@@H](Cc1c[nH]c2ccccc12)C(=O)N[C@H](C(=O)N[C@@H](CS)C(N)=O)C(C)C (Ac-CADWVC-NH2) | > 1
5 | CC(=O)N[C@@H](CS)C(=O)N[C@@H](CCCNC(=N)N)C(=O)N[C@@H](CC(=O)O)C(=O)N[C@@H](Cc1c[nH]c2ccccc12)C(=O)N[C@H](C(=O)N[C@@H](CS)C(=O)N[C@@H](Cc1ccc(O)cc1)C(=O)N[C@@H](Cc1c[nH]c2ccccc12)C(=O)N[C@@H](Cc1cnc[nH]1)C(=O)N[C@H](C(=O)N[C@@H](Cc1ccccc1)C(=O)NCC(N)=O)[C@@H](C)O)C(C)C | 0.5 to 1
6 | CC(=O)N[C@@H](CS)C(=O)N[C@@H](CCC(N)=O)C(=O)N[C@H](C(=O)N[C@@H](Cc1c[nH]c2ccccc12)C(=O)N[C@@H](CCC(N)=O)C(=O)N[C@@H](CS)C(=O)N[C@@H](Cc1ccc(O)cc1)C(=O)N[C@H](CC(=O)N[C@@H](CCCNC(=N)N)C(=O)N[C@H](C(=O)N[C@@H](CC(N)=O)C(=O)NCC(=O)NCCOCC(=O)N[C@H](CCCCN)C(N)=O)C(C)C)Cc1ccc(F)cc1)[C@@H](C)O | > 30
7 | CC(=O)N[C@@H](CS)C(=O)N[C@@H](C)C(=O)N[C@@H](CC(=O)O)C(=O)N[C@@H](Cc1c[nH]c2ccccc12)C(=O)N[C@@H](CCCCN)C(=O)N[C@@H](CS)C(=O)N[C@@H](Cc1ccc(O)cc1)C(=O)N[C@@H](Cc1c[nH]c2ccccc12)C(=O)N[C@@H](Cc1cnc[nH]1)C(=O)N[C@H](C(=O)N[C@@H](Cc1ccccc1)C(=O)NCC(=O)O)[C@@H](C)O | > 1
8 | CC(=O)N[C@@H](CS)C(=O)N[C@@H](C)C(=O)N[C@@H](CC(=O)O)C(=O)N[C@@H](Cc1c[nH]c2ccccc12)C(=O)N[C@H](C(=O)N[C@@H](CS)C(=O)N[C@@H](Cc1ccc(O)cc1)C(=O)N[C@@H](Cc1c[nH]c2ccccc12)C(=O)N[C@@H](Cc1cnc[nH]1)C(=O)N[C@H](C(=O)N[C@@H](Cc1ccccc1)C(=O)NCC(=O)NCCCC(=O)N[C@H](CCCCN)C(=O)O)[C@@H](C)O)C(C)C | < 0.5
9 | CC(C)[C@H](NC(=O)[C@H](Cc1c[nH]c2ccccc12)NC(=O)[C@H](CC(=O)O)NC(=O)[C@H](C)NC(=O)[C@@H](N)CS)C(=O)N[C@@H](CS)C(=O)N[C@@H](Cc1ccc(O)cc1)C(=O)N[C@@H](C)C(=O)N[C@@H](Cc1cnc[nH]1)C(=O)N[C@H](C(=O)N[C@@H](Cc1ccccc1)C(=O)NCC(N)=O)[C@@H](C)O | > 1
10 | CC(=O)N[C@@H](CS)C(=O)N[C@@H](C)C(=O)N[C@@H](CC(=O)O)C(=O)N[C@@H](Cc1c[nH]c2ccccc12)C(=O)N[C@H](C(=O)N[C@@H](CS)C(=O)N[C@@H](Cc1ccc(O)cc1)C(=O)NC1(C(=O)N[C@@H](Cc2cnc[nH]2)C(=O)N[C@H](C(=O)N[C@@H](Cc2ccccc2)C(=O)NCC(=O)NCCOCC(=O)N[C@H](CCCCN)C(N)=O)[C@@H](C)O)Cc2ccccc2C1)C(C)C | > 1
11 | CC(C)[C@H](NC(=O)[C@H](Cc1cccc2ccccc12)NC(=O)[C@H](CC(=O)O)NC(=O)[C@H](C)NC(=O)[C@@H](N)CS)C(=O)N[C@@H](CS)C(=O)N[C@@H](Cc1ccc(O)cc1)C(=O)N[C@@H](Cc1c[nH]c2ccccc12)C(=O)N[C@@H](Cc1cnc[nH]1)C(=O)N[C@H](C(=O)N[C@@H](Cc1ccccc1)C(=O)NCC(N)=O)[C@@H](C)O | > 1
12 | CC(=O)N[C@@H](CS)C(=O)N[C@@H](CCC(N)=O)C(=O)N[C@H](C(=O)N[C@@H](Cc1c[nH]c2ccccc12)C(=O)N[C@@H](CCC(N)=O)C(=O)N[C@@H](CS)C(N)=O)[C@@H](C)O (Ac-CQTWQC-NH2) | > 30
13 | CC(=O)N[C@@H](CS)C(=O)N[C@@H](C)C(=O)N[C@@H](CC(=O)O)C(=O)N[C@@H](Cc1c[nH]c2ccccc12)C(=O)N[C@H](C(=O)N[C@@H](CS)C(=O)N[C@@H](Cc1ccc(O)cc1)C(=O)N[C@@H](Cc1c[nH]c2ccccc12)C(=O)N[C@@H](CCCN)C(=O)N[C@H](C(=O)N[C@@H](Cc1ccccc1)C(=O)NCC(=O)NCCC(=O)N[C@H](CCCCN)C(N)=O)C1CCCCC1)C(C)C | > 30
14 | CSCC[C@H](NC(=O)[C@H](Cc1c[nH]c2ccccc12)NC(=O)[C@H](CC(=O)O)NC(=O)[C@H](C)NC(=O)[C@@H](N)CS)C(=O)N[C@@H](CS)C(=O)N[C@@H](Cc1ccc(O)cc1)C(=O)N[C@@H](Cc1c[nH]c2ccccc12)C(=O)N[C@@H](Cc1cnc[nH]1)C(=O)N[C@@H](CCC(=O)O)C(=O)N[C@@H](Cc1ccc(O)cc1)C(=O)NCC(N)=O (H-CADWMCYWHEYG-NH2) | 0.5 to 1
15 | CC(=O)N[C@H](CCCCN)C(=O)N[C@@H](CO)C(=O)N[C@@H](CS)C(=O)N[C@@H](C)C(=O)N[C@@H](CC(=O)O)C(=O)N[C@@H](Cc1c[nH]c2ccccc12)C(=O)N[C@H](C(=O)N[C@@H](CS)C(=O)N[C@@H](Cc1ccc(O)cc1)C(=O)N[C@@H](Cc1c[nH]c2ccccc12)C(=O)N[C@@H](Cc1cnc[nH]1)C(=O)N[C@H](C(=O)N[C@@H](Cc1ccccc1)C(=O)NCC(=O)O)[C@@H](C)O)C(C)C | > 1

Continued, values first:

Row | IC50 [µM] | SMILES
16 | 0.1 to 1 | CC(=O)NC1CC/C=C\CCC(C(=O)N[C@@H](Cc2ccc(O)cc2)C(=O)N[C@@H](Cc2c[nH]c3ccccc23)C(=O)N[C@@H](CCCNC(=N)N)C(=O)N[C@@H](CCCCN)C(=O)N[C@@H](Cc2ccccc2)C(=O)NCC(=O)NCCOCC(=O)N[C@H](CCCCN)C(N)=O)NC(=O)[C@H](CCC(N)=O)NC(=O)[C@H](Cc2c[nH]c3ccccc23)NC(=O)[C@H]([C@@H](C)O)NC(=O)[C@H](CCCNC(=N)N)NC1=O (some centres not stated)
17 | 0.1 to 1 | CC(=O)NCCCC[C@H](NC(=O)[C@](C)(CCCCN)NC(=O)[C@H](Cc1ccc2ccccc2c1)NC(=O)[C@H](Cc1ccc(N)cc1)NC(=O)[C@@H](NC(=O)[C@H](CCC(N)=O)NC(=O)[C@H](Cc1c[nH]c2ccccc12)NC(=O)[C@@H](NC(=O)[C@H](CCC(N)=O)NC(=O)[C@@H](NC(C)=O)C(C)(C)S)[C@@H](C)O)C(C)(C)S)C(=O)N[C@@H](CC(N)=O)C(=O)NCC(N)=O
18 | 30 | CC(=O)N[C@@H](CS)C(=O)N[C@@H](CCC(N)=O)C(=O)N[C@H](C(=O)N[C@@H](Cc1c[nH]c2ccccc12)C(=O)N[C@@H](CCC(N)=O)C(=O)N[C@@H](CS)C(=O)N[C@@](C)(Cc1ccccc1)C(=O)N[C@@H](Cc1c[nH]c2ccccc12)C(=O)N[C@@H](CCC(C)C)C(=O)N[C@@H](CCC(=O)O)C(=O)N[C@@H](CC(N)=O)C(=O)NCC(N)=O)[C@@H](C)O
19 | > 30 | CC(=O)N[C@@H](CS)C(=O)N[C@@H](CCC(N)=O)C(=O)N[C@H](C(=O)N[C@@H](Cc1c[nH]c2ccccc12)C(=O)N[C@@H](CCC(N)=O)C(=O)N[C@@H](CS)C(=O)N[C@@H](Cc1ccc(O)cc1)C(=O)N[C@@H](Cc1c[nH]c2ccccc12)C(=O)N1CCC[C@H]1C(=O)N[C@@H](CCC(=O)O)C(=O)N[C@@H](CC(N)=O)C(=O)NCC(N)=O)[C@@H](C)O
20 | > 3 | CC(=O)NCCCC[C@H](NC(=O)[C@](C)(CCCCN)NC(=O)[C@H](CCC(=O)OCc1ccccc1)NC(=O)[C@H](Cc1ccc(OCCN)cc1)NC(=O)[C@@H]1CSCC[C@H](NC(C)=O)C(=O)N[C@@H](CN)C(=O)N[C@@H]([C@@H](C)O)C(=O)N[C@@H](Cc2c[nH]c3ccccc23)C(=O)N[C@@H](CCC(N)=O)C(=O)N1)C(=O)N[C@@H](CC(N)=O)C(=O)NCC(N)=O (Ac-[Abu(4-yl)][Dap]TWQC[AEF]E(OBn)[αMeK]K(Ac)NG-NH2; thioether 1-6)
21 | > 3 | CC(=O)N[C@H]1CCSC[C@@H](C(=O)N[C@@H](Cc2ccc(OCCN)cc2)C(=O)N[C@@H](Cc2ccc3ccccc3c2)C(=O)N[C@@](C)(CCCCN)C(=O)N[C@@H](CCC(=O)O)C(=O)N[C@@H](CC(N)=O)C(=O)NCC(N)=O)NC(=O)[C@H](CCC(N)=O)NC(=O)[C@H](c2ccc(OCCN)cc2)NC(=O)[C@H]([C@@H](C)O)NC(=O)[C@H](CCC(N)=O)NC1=O
22 | > 1 | CC(=O)N[C@@H](CS)C(=O)N[C@@H](CCC(N)=O)C(=O)N[C@H](C(=O)N[C@@H](Cc1c[nH]c2ccccc12)C(=O)N[C@@H](CCC(N)=O)C(=O)N[C@@H](CS)C(=O)N[C@@H](Cc1ccc(O)cc1)C(=O)N[C@@H](Cc1c[nH]c2ccccc12)C(=O)N[C@H](CCCNC(=N)N)C(=O)N[C@@H](CCC(=O)O)C(=O)N[C@@H](CC(N)=O)C(=O)NCC(=O)NCCOCC(=O)N[C@H](CCCCN)C(N)=O)[C@@H](C)O

— ChEMBL document CHEMBL4417631, “Oral peptide inhibitors of interleukin-23 receptor and their use to treat inflammatory bowel diseases” (2017)
